Experimental data: patent publication US6274715A, “Tricyclic erythromycin derivatives” (priority 1997, dated 2001)
≈ marks a conversion by molar mass, not a printed value. Where two headings read alike, the source gives them in different places.

Assays:
Type in all cases: cell-based
PSEUDOMONAS CEPACIA 296I = assay: In vitro antibacterial activity, MIC, BHI agar dilution; conditions: P. cepacia 296I, unit assumed
[1] = test system: STREPTOCOCCUS PYOGENES 930; assay: as above; conditions: S. pyogenes 930, unit assumed
[2] = test system: STREPTOCOCCUS BOVIS A-5169; assay: as above; conditions: S. bovis A-5169, unit assumed
M[…] ATCC 9341 = assay: as above; conditions: M. luteus ATCC 9341, unit assumed
Experimental: (§1) Representative compounds of the present invention were assayed in vitro for antibacterial activity as follows: Twelve petri dishes containing successive aqueous dilutions of the test compound mixed with 10 mL of sterilized Brain Heart Infusion (BHI) agar (Difco 0418-01-5) were prepared. Each plate was inoculated with 1:100 (or 1:10 for slow-growing strains, such as Micrococcus and Streptococcus) dilutions of up to 32 different microorganisms, using a Steers replicator block. The inoculated plates were incubated at 35-37° C. for 20 to 24 hours. In addition, a control plate, using BHI agar containing no test compound, was prepared and incubated at the beginning and end of each test.
(§2) An additional plate containing a compound having known susceptibility patterns for the organisms being tested and belonging to the same antibiotic class as the test compound was also prepared and incubated as a further control, as well as to provide test-to-test comparability. Erythromycin A was used for this purpose.
(§3) After incubation, each plate was visually inspected. The minimum inhibitory concentration (MIC) was defmed as the lowest concentration of drug yielding no growth, a slight haze, or sparsely isolated colonies on the inoculum spot as compared to the growth control.

M[…] ATCC 4698 = assay: as above; conditions: M. luteus ATCC 4698, unit assumed
Experimental: as §1, §2, §3

EN[…] ATCC 8043 = assay: as above; conditions: E. faecium ATCC 8043, unit assumed
Experimental: as §1, §2, §3

STR[…] 508 = assay: as above; conditions: S. agalactiae CMX 508, unit assumed
Experimental: as §1, §2, §3

[3] = test system: PSEUDOMONAS AERUGINOSA DPHD-5263; assay: as above; conditions: P. aeruginosa DPHD-5263, unit assumed
ESCHERICHIA COLI DC-2 = assay: as above; conditions: E. coli DC-2, unit assumed
ESCHERICHIA COLI KNK 437 = conditions: E. coli KNK 437; BHI agar; unit assumed
[4] = test system: PSEUDOMONAS AERUGINOSA 5007; assay: In vitro antibacterial activity, MIC, BHI agar dilution; conditions: P. aeruginosa 5007, unit assumed
[5] = test system: MYCOBACTERIUM SMEGMATIS ATCC 114; assay: as above; conditions: M. smegmatis ATCC 114, unit assumed
[6] = test system: STAPHYLOCOCCUS AUREUS NCTC10649M; assay: as above; conditions: S. aureus NCTC10649M, unit assumed
[7] = test system: PSEUDOMONAS AERUGINOSA K799/61; assay: as above
[8] = test system: PSEUDOMONAS AERUGINOSA DPHD-2862; assay: as above; conditions: P. aeruginosa DPHD-2862, unit assumed
[9] = test system: STAPHYLOCOCCUS AUREUS CMX 553; assay: as above; conditions: S. aureus CMX 553, unit assumed
[10] = test system: STAPHYLOCOCCUS AUREUS CMX 642A; assay: as above; conditions: S. aureus CMX 642A, unit assumed
[11] = test system: PROVIDENCIA STUARTII CMX 640; conditions: P. stuartii CMX 640; BHI agar; unit assumed
[12] = test system: STREPTOCOCCUS PYOGENES PIU 2548; assay: In vitro antibacterial activity, MIC, BHI agar dilution
[13] = test system: STAPHYLOCOCCUS AUREUS A-5278; assay: as above; conditions: S. aureus A-5278, unit assumed
[14] = test system: PSEUDOMONAS AERUGINOSA K799/WT; assay: as above; conditions: P. aeruginosa K799/WT
ESCHERICHIA COLI SS = assay: as above; conditions: E. coli SS, unit assumed
ESCHERICHIA COLI JUHL = conditions: E. coli JUHL, BHI agar, unit assumed
CANDIDA ALBICANS CCH 442 = assay: In vitro antibacterial activity, MIC, BHI agar dilution; conditions: C. albicans CCH 442, unit assumed
[15] = test system: ENTEROBACTER AEROGENES ATCC 13048; assay: as above
[16] = test system: STREPTOCOCCUS PYOGENES EES61; assay: as above; conditions: S. pyogenes EES61, unit assumed
[17] = test system: PSEUDOMONAS AERUGINOSA BMH10; assay: as above
ESCHERICHIA COLI H560 = assay: as above
[18] = test system: STAPHYLOCOCCUS EPIDERMIDIS 3519; conditions: S. epidermidis 3519, BHI agar, unit assumed
[19] = test system: STAPHYLOCOCCUS AUREUS 1775; assay: In vitro antibacterial activity, MIC, BHI agar dilution; conditions: S. aureus 1775, unit assumed
[20] = test system: STAPHYLOCOCCUS AUREUS ATCC 6538P; assay: as above; conditions: S. aureus ATCC 6538P, 35-37° C., 20 to 24 hours
[21] = test system: KLEBSIELLA PNEUMONIAE ATCC 8045; assay: as above; conditions: K. pneumoniae ATCC 8045, unit assumed
[22] = P. aeruginosa K799/61, unit assumed
[23] = S. pyogenes PIU 2548, unit assumed
[24] = E. aerogenes ATCC 13048, unit assumed
[25] = P. aeruginosa BMH10, unit assumed

SMILES | MIC (PSEUDOMONAS CEPACIA 296I) [µg/mL] | MIC [1] [µg/mL] | MIC [2] [µg/mL] | MIC (M[…] ATCC 9341) [µg/mL] | MIC (M[…] ATCC 4698) [µg/mL] | MIC (EN[…] ATCC 8043) [µg/mL] | MIC (STR[…] 508) [µg/mL] | MIC [3] [µg/mL] | MIC (ESCHERICHIA COLI DC-2) [µg/mL] | MIC (ESCHERICHIA COLI KNK 437) [µg/mL] | MIC [4] [µg/mL] | MIC [5] [µg/mL] | MIC [6] [µg/mL] | MIC [7, 22] [µg/mL] | MIC [8] [µg/mL] | MIC [10] [µg/mL] | MIC [11] [µg/mL] | MIC [13] [µg/mL] | MIC (CANDIDA ALBICANS CCH 442) [µg/mL] | MIC [19] [µg/mL] | further results
CC[C@H]1OC(=O)[C@H](C)C(=O)[C@H](C)[C@@H](O[C@@H]2O[C@H](C)C[C@H](N(C)C)[C@H]2O)[C@](C)(OC)C[C@@H](C)C2=NC3CN(CC)CC3N3C(=O)O[C@@]1(C)[C@H]3[C@H]2C (some centres unmarked) [Example 115] | > 100 | > 100 | ≤ 0.005 | 0.1 (≈ 0.141 µM) | 0.39 (≈ 0.552 µM) | 0.1 (≈ 0.141 µM) | 0.05 (≈ 0.0707 µM) | > 100 | 50 (≈ 70.7 µM) | 25 (≈ 35.4 µM) | > 100 | 12.5 (≈ 17.7 µM) | 0.78 (≈ 1.1 µM) | 0.78 (≈ 1.1 µM) | > 100 | 1.56 (≈ 2.21 µM) | > 100 | > 100 | > 100 | > 100 | MIC [9]: 1.56 µg/mL (≈ 2.21 µM); MIC [12, 23]: 0.78 µg/mL (≈ 1.1 µM); MIC ([14]; unit assumed): > 100 µg/mL; MIC (ESCHERICHIA COLI SS): 0.39 µg/mL (≈ 0.552 µM); MIC (ESCHERICHIA COLI JUHL): > 100 µg/mL; MIC [15, 24]: 50 µg/mL (≈ 70.7 µM); MIC [16]: 0.05 µg/mL (≈ 0.0707 µM); MIC [17, 25]: > 100 µg/mL; MIC (ESCHERICHIA COLI H560; E. coli H560, unit assumed): 12.5 µg/mL (≈ 17.7 µM); MIC [18]: 1.56 µg/mL (≈ 2.21 µM)
CC[C@H]1OC(=O)[C@H](C)C(=O)[C@H](C)[C@@H](O[C@@H]2O[C@H](C)C[C@H](N(C)C)[C@H]2O)[C@](C)(OC)C[C@@H](C)C2=NC(COCc3ccccc3)C(COCc3ccccc3)N3C(=O)O[C@@]1(C)[C@H]3[C@H]2C (some centres unmarked) [Example 146] | 25 (≈ 28.5 µM) | 12.5 (≈ 14.2 µM) | 0.05 (≈ 0.0569 µM) | 0.05 (≈ 0.0569 µM) | 0.2 (≈ 0.228 µM) | 0.05 (≈ 0.0569 µM) | 0.05 (≈ 0.0569 µM) | 100 (≈ 114 µM) | 100 (≈ 114 µM) | 25 (≈ 28.5 µM) | 100 (≈ 114 µM) | 0.39 (≈ 0.444 µM) | 0.39 (≈ 0.444 µM) | 0.78 (≈ 0.888 µM) | 100 (≈ 114 µM) | 0.39 (≈ 0.444 µM) | 100 (≈ 114 µM) | 50 (≈ 56.9 µM) | 50 (≈ 56.9 µM) | 50 (≈ 56.9 µM) | MIC ([20]; unit assumed): 0.39 µg/mL (≈ 0.444 µM); MIC [21]: 100 µg/mL (≈ 114 µM); MIC [9]: 0.39 µg/mL (≈ 0.444 µM); MIC [12, 23]: 0.78 µg/mL (≈ 0.888 µM); MIC ([14]; unit assumed): 100 µg/mL (≈ 114 µM); MIC (ESCHERICHIA COLI SS): 0.78 µg/mL (≈ 0.888 µM); MIC (ESCHERICHIA COLI JUHL): 50 µg/mL (≈ 56.9 µM); MIC [15, 24]: > 100 µg/mL; MIC [16]: 0.05 µg/mL (≈ 0.0569 µM); MIC [17, 25]: 100 µg/mL (≈ 114 µM); MIC (ESCHERICHIA COLI H560; E. coli H560, unit assumed): 25 µg/mL (≈ 28.5 µM); MIC [18]: 0.39 µg/mL (≈ 0.444 µM)
CCC1OC(=O)C(C)C(=O)C(C)C(OC2OC(C)CC(N(C)C)C2O)C(C)(OC)CC(C)C2=NCC(CCc3ccccc3)N3C(=O)OC1(C)C3C2C (centres unmarked) [Example 35] | 100 (≈ 135 µM) | 50 (≈ 67.4 µM) | 0.01 (≈ 0.0135 µM) | 0.2 (≈ 0.27 µM) | – | 0.2 (≈ 0.27 µM) | 0.02 (≈ 0.027 µM) | > 100 | – | 100 (≈ 135 µM) | > 100 | 0.39 (≈ 0.526 µM) | 0.78 (≈ 1.05 µM) | – | > 100 | 0.78 (≈ 1.05 µM) | > 100 | > 100 | > 100 | > 100 | MIC ([20]; listed as Ex 35, unit assumed): 0.39 µg/mL (≈ 0.526 µM); MIC [21]: > 100 µg/mL; MIC ([7]; P. aeruginosa K799/61, listed as Ex 35, unit assumed): 3.1 µg/mL (≈ 4.18 µM); MIC ([12]; S. pyogenes PIU 2548, listed as Ex 35, unit assumed): 0.39 µg/mL (≈ 0.526 µM); MIC ([14]; listed as Ex 35, unit assumed): > 100 µg/mL; MIC (ESCHERICHIA COLI JUHL; listed as Ex 35): > 100 µg/mL; MIC ([15]; E. aerogenes ATCC 13048, listed as Ex 35, unit assumed): 100 µg/mL (≈ 135 µM); MIC ([17]; P. aeruginosa BMH10, listed as Ex 35, unit assumed): > 100 µg/mL; MIC (ESCHERICHIA COLI H560; E. coli H560, listed as Ex 35, unit assumed): 50 µg/mL (≈ 67.4 µM); MIC ([18]; listed as Ex 35): 0.39 µg/mL (≈ 0.526 µM)
